Data on 11 compounds can be found in patent publication US20040067540A1, “Rapid method for screening compounds for in vivo activity” (priority 2003, published 2004).

One test relates to various tumor cell lines. Briefly: Present method: tumor cells in implanted encapsulation device, response to antitumor agents. The format is in vivo. The source says: The present method can be utilized as a first line screen to test potential drug candidates for in vivo efficacy.
The test system of a further test is p21^WAF1/Clp1 promoter. Briefly: Hollow fiber p21^WAF1/Clp1 promoter-luciferase reporter assay: light emission from Fibers with H1299C2 cells retrieved from dosed mice. The format is in vivo, mouse (mouse (human H1299C2 cells in hollow fibers) H1299C2 cells in hollow fibers). The settings on record: H1299C2 cells in hollow fibers implanted s.c. in athymic nude mice; single intravenous dose 50, 25 or 12.5 mg/kg; Fibers retrieved 24 hours after dosing; p<0.01, one tailed Student t-test. Here is the method: A human lung cancer cell line, H1299, is obtained from the American Type Culture Collection, ATCC, Rockville, Md.) and cultured in the RPMI 1640 medium supplemented with 10% heat-inactivated Fetal Bovine Serum (Life Technologies, Grand Island, N.Y.). Cells harvested at approx. 85% confluency are washed with ice cold phosphate buffered saline (PBS) and suspended in the ice cold PBS at a concentration of 2×10^7 cells/mL. One half of one mL of the cell suspension is used for transfection with 10 μg of p21^WAF1/Clp1 luciferase plasmid and NeotetR selectable marker. Transfection is performed by electroporation at […]. Cells are then plated in the above medium containing 0.4 mg/mL G-418 (Life Technologies, Grand Island, N.Y.). One colony is selected, diluted to one cell/well and a single clone is expanded to generate p21^WAF1/Clp1 promoter-luciferase stable cell line designated H1299C2. The cell line tests negative for Mycoplasma contamination (Rapid Detection System by Gen-Probe, Inc., San Diego, Calif.) and for Mouse Antibody Production (MA BioServices, Inc., Rockville, Md.).
The H1299C2 cell line is propagated and expanded for implantation in RPMI 1640 medium containing 10% heat-inactivated Fetal Bovine Serum (Life Technologies, Grand Island, N.Y.) in a cell culture incubator, at 37° C. with humidified atmosphere, containing 5% CO2. […]

Structures are written as SMILES.

In the case of `O=C1c2c(O)ccc(O)c2C(=O)c2c(NCCNCCO)ccc(NCCNCCO)c21` [mitoxantrone], the “activity when tested on various tumor cell lines with the present method” value (“activity when tested” for short) in the test on various tumor cell lines is given as “significant activity”.

As for `O=c1[nH]cc(F)c(=O)[nH]1` [5-fluorouracil], the “activity when tested” value in the test with various tumor cell lines is “significant activity”.

`O=C(/C=C/c1ccc(CN(CCO)CCc2c[nH]c3ccccc23)cc1)NO` [compound 1, N-hydroxy-3-[4-[[(2-hydroxyethyl)[2-(1H-indol-3-yl)-ethyl]-amino]methyl]phenyl]-2E-2-propenamide]: the “expression of the reporter gene (firefly luciferase) in vivo as judged by registered light emission from the Fibers” value with p21^WAF1/Clp1 promoter was “statistically significant (p<0.01, one tailed Student t-test) and reproducible expression of the reporter gene”.

Take `COc1cccc2c1C(=O)c1c(O)c3c(c(O)c1C2=O)C[C@@](O)(C(=O)CO)C[C@@H]3O[C@H]1C[C@H](N)[C@H](O)[C@H](C)O1` [doxorubicin]: the “activity when tested” value in the test with various tumor cell lines is “significant activity”.

For `CC[C@@]1(O)C(=O)OCc2c1cc1n(c2=O)Cc2cc3ccccc3nc2-1` [camptothecin], the “activity when tested” value in the test on various tumor cell lines was “significant activity”.

Take `Cc1[nH]c2ccccc2c1CCNCc1ccc(/C=C/C(=O)NO)cc1` [compound 2, N-hydroxy-3-[4-[[[2-(2-methyl-1H-indol-3-yl)-ethyl]-amino]methyl]phenyl]-2E-2-propenamide]: the “expression of the reporter gene (firefly luciferase) in vivo as judged by registered light emission from the Fibers” value with p21^WAF1/Clp1 promoter is “statistically significant (p<0.01, one tailed Student t-test) and reproducible expression of the reporter gene”.

For the compound `CC(=O)O[C@H]1C(=O)[C@@]2(C)[C@H]([C@H](OC(=O)c3ccccc3)[C@]3(O)C[C@H](OC(=O)[C@H](O)[C@@H](NC(=O)c4ccccc4)c4ccccc4)C(C)=C1C3(C)C)[C@]1(OC(C)=O)CO[C@@H]1C[C@@H]2O` [paclitaxel], the “activity when tested” value in the test with various tumor cell lines is given as “significant activity”.

`COc1cc([C@@H]2c3cc4c(cc3[C@@H](O[C@@H]3O[C@@H]5CO[C@@H](C)O[C@H]5[C@H](O)[C@H]3O)[C@H]3COC(=O)[C@H]23)OCO4)cc(OC)c1O` [etoposide]: the “activity when tested” value with various tumor cell lines was “significant activity”.

For `CO[C@@]12[C@H](COC(N)=O)C3=C(C(=O)C(C)=C(N)C3=O)N1C[C@@H]1N[C@@H]12` [mitomycin C], the “activity when tested” value in the test on various tumor cell lines is given as “significant activity”.

`CC[C@]1(O)C[C@H]2CN(CCc3c([nH]c4ccccc34)[C@@](C(=O)OC)(c3cc4c(cc3OC)N(C=O)[C@H]3[C@@](O)(C(=O)OC)[C@H](OC(C)=O)[C@]5(CC)C=CCN6CC[C@]43[C@@H]65)C2)C1` [vincristine]: the “activity when tested” value with various tumor cell lines is “significant activity”.

Take `N.N.[Cl][Pt][Cl]` [cis-platinum]: the “activity when tested” value with various tumor cell lines was “significant activity”.
